# Results as given in patent publication US11123398B2, “Chemotherapeutic combinations of cationic antimicrobial peptides and chemotherapeutics” (LYTIX BIOPHARMA AS, priority 2014, dated 2021).
# Non-standard residues stand in square brackets, D forms with d. Residues, ends and D or L forms follow the SMILES beside them. Dip = N[C@H](C(=O)O)C(c1ccccc1)c1ccccc1
# How the values were obtained:
# [1] = Exposure time for cell killing (background statement); type: cell-based
# [2] = system: panel of 37 human cancer cell lines; type: cell-based
# Description: The adherent cell lines were washed once with 200 μl FBS-free culture medium before treatment. […] compounds in ¼ dilution step with a top dose of 400 μM (range 4×10^−4 to 4×10^−10 M), with 1% (final concentration) Triton X-100 as positive control and FBS-free culture medium as negative control. The cells (190 μl) were incubated in a 200 μl final volume of FBS-free culture medium containing test substances at 37° C. under 5% CO2.
# Three independent experiments were performed, each concentration being tested in quadruplicate. Control cells were treated with vehicle alone. At the end of treatments, the cytotoxic activity was evaluated by a MTS assay (see § 3.3.).
# Like MTT, MTS is bioreduced by cells into a formazan product that is directly soluble in culture medium without processing, unlike MTT.
# At the end of the cells treatment, 40 μl of a 0.22 μm filtered freshly combined solution of MTS (20 ml at 2 mg/ml, Ref G1111, Batch 235897, Exp March 2009, Promega, Charbonnières, France) and PMS (1 ml at 0.92 mg/ml, Ref P9625, Batch 065K0961, Sigma) in Dulbecco's Phosphate Buffered Saline (DPBS, Ref 17-513Q, Batch 6MB0152, Cambrex), were added in each well. Culture plates were incubated for 2 h at 37° C. Absorbency (OD) were measured at 490 nm in each well using VICTOR^3™ 1420 multilabeled counter (Wallac, PerkinElmer, Courtaboeuf, France).
# IC50: drug concentration to obtain a 50% inhibition of cell proliferation.
# The dose-response curves were plotted using XLFit 3 (IDBS, United Kingdom). The IC50 determination values were calculated using the XLFit 3 software from semi-log curves. Individual IC50 determination values as well as mean and SD values were generated.
# A375 cells [3] = assay: Mitotracker confocal imaging (mitochondrial membrane potential); type: cell-based, human; conditions: short time after peptide treatment; data not shown
# Description: Cells were seeded as for live cell imaging, and treated with Mitotracker CMH2XROS (Invitrogen) at […] for 15 minutes prior to peptide treatment. Cells were treated with 17 μM LTX-315, with negative control serum-free RPMI only. After 60 min of incubation, cells were analyzed using a Zeiss microscope. All confocal imaging experiments were subsequently conducted at least twice with similar results.
# [4] = system: CT26WT colon carcinoma cells; assay: Re-challenge with CT26WT colon carcinoma in mice with complete regression; type: in vivo, Balb-c mice; conditions: of 9 mice previously treated with 0.5 or 1 mg
# Description: Methods: Female Balb-c mice (n=4), previously treated with LTX-315, 1 mg) or (n=9); previously treated with LTX-315 0.5 or 1 mg) were re-inoculated (s.c. in the abdominal area) with either murine A20 B cell lymphoma cells or CT26WT colon carcinoma cells (5 million) respectively 6 weeks following initial treatment with LTX-315. Tumour growth was monitored for up to 36 days following re-inoculation.
# A375 cells [5] = assay: Release of ATP (luciferase assay); type: cell-based, human; conditions: luciferase detection; concentration-dependent
# Description: The supernatant of LTX-315-treated A375 cells was analyzed using an Enliten ATP luciferase assay kit (Promega, USA). Cells were then seeded as with an ROS assay, and treated with LTX-315 in different incubation times, from 1 to 15 minutes with two parallels, which was then conducted three times. Negative controls were untreated A375 cells exposed to serum-free media alone. Samples were diluted at 1:50 and 1:100, and analyzed with a Luminoscan RT luminometer according to the manufacturer's protocol.
# A375 cells [6] = assay: Release of cytochrome-C (ELISA); type: cell-based, human; conditions: 35 μM, 5, 15, 45 min
# Description: A375 cells were seeded as with HMGB1 studies, and treated with 35 μM for different time points (5, 15, 45). Supernatants were collected and concentrated as with HMGB1 studies, and samples from the supernatants were analyzed using a 4.5 hour solid form Cytochrome C—Elisa kit (R&D Systems, USA, #DCTCO) following the manufacturer's description. Shortly thereafter, a 50% diluted sample was analyzed and the optical density was determined using a microplate reader set at 450 nm, and this reading was then subtracted from the reading at 540 nm. A standard curve was generated for each set of samples assayed. Samples were run in four parallels, and the cytochrome-c released into the supernatant was expressed as a fold over the level of cytochrome-c in the supernatant of untreated cells.
# [7] = system: murine CT26WT colon carcinoma; assay: Murine CT26WT colon carcinoma tumours in mice, treatment regimes; type: in vivo; conditions: for Mean tumour size at day 1: prior to start of treatment
# Description: The administration takes place by intra-tumoural injection of LTX-315 dissolved in sterile saline (0.9% NaCl in sterile water).
# The mice were divided into five groups, 8 mice in each group. When the tumours reached the desired size of 20 mm^2 the treatment by intra tumoural injection was initiated. Group one was treated solely on day 1, Group two on day 1 and 2, Group three on day 1 and 3 and Group four on day 1, 2 and 3. All daily treatments were one single injection of 1.0 mg LTX-315 dissolved in 50 μl (20 mg/ml). Group five was treated with the 50 μl of vehicle for LTX-315 (Group 5).
# Weighing and physical examination were used as health controls.
# [8] = Group 1: 1 mg intratumoural on day 1
# [9] = Group 2: 1 mg intratumoural on days 1, 2
# [10] = Group 3: 1 mg intratumoural on days 1, 3
# [11] = Group 4: 1 mg days 1, 2, 3, n=8
# [12] = Group 4: 1 mg intratumoural on days 1, 2, 3
# [13] = of the 32 treated animals, all four regimes
smiles,measurement,setting,value
"NCCCC[C@H](NC(=O)[C@@H](NC(=O)[C@H](Cc1c[nH]c2ccccc12)NC(=O)[C@H](CCCCN)NC(=O)[C@H](CCCCN)NC(=O)[C@H](Cc1c[nH]c2ccccc12)NC(=O)[C@H](Cc1c[nH]c2ccccc12)NC(=O)[C@H](CCCCN)NC(=O)[C@@H](N)CCCCN)C(c1ccccc1)c1ccccc1)C(N)=O [LTX-315, K-K-W-W-K-K-W-Dip-K-NH2] (H-KKWWKKW[Dip]K-NH2)",Exposure time causing cell death,[1],30 min
same,"Potency rank among the five compounds tested, 37 cell line panel",[2],most potent compound from the five compounds tested
same,IC50,[2]; 4 h,3.63 ± 1.45 µM
same,IC50 range against 37 human cancer cell lines,[2]; conclusion,micromolar to ten micromolar range
same,Mitochondrial membrane potential (Mitotracker signal),A375 cells [3],loss of mitochondrial signal
same,Animals with complete regression after re-inoculation,[4],2
same,Mice with inhibition of tumour growth after re-inoculation,[4]; P<0.01 versus control,7
same,ATP release into supernatant,A375 cells [5],ATP was detected in the supernatant as early as after 5 minutes of treatment
same,Cytochrome-C in the supernatant compared to untreated control cells,A375 cells [6],three times more
same,Animals showing complete tumour response,[7]; Group 1: 1 mg day 1,four out of eight
same,Free of Tumour at end of Follow-Up,"[7]; Group 1: 1 mg day 1, n=8",50% (4/8)
same,Relapse of Tumour,"[7]; Group 1: 1 mg day 1, n=8",20% (1/5)
same,Tumour Response: complete response,"[7]; Group 1: 1 mg day 1, n=8",62.5%
same,Tumour Response: no response,"[7]; Group 1: 1 mg day 1, n=8",0%
same,Tumour Response: partial response,"[7]; Group 1: 1 mg day 1, n=8",27.5%
same,Mean tumour size on day 6,[7]; [8],4.343 ± 2.295 mm^2
same,Mean tumour size on day 10,[7]; [8],7.171 ± 4.035 mm^2
same,Mean tumour size on day 17,[7]; [8],3.712 ± 3.712 mm^2
same,Mean tumour size at day 1,[7]; [8],22.69 ± 0.4070 mm^2
same,Animals showing complete tumour response,"[7]; Group 2: 1 mg days 1, 2",two out of eight
same,Free of Tumour at end of Follow-Up,"[7]; Group 2: 1 mg days 1, 2, n=8",25% (2/8)
same,Relapse of Tumour,"[7]; Group 2: 1 mg days 1, 2, n=8",71% (5/7)
same,Tumour Response: complete response,"[7]; Group 2: 1 mg days 1, 2, n=8",87.5%
same,Tumour Response: no response,"[7]; Group 2: 1 mg days 1, 2, n=8",0%
same,Tumour Response: partial response,"[7]; Group 2: 1 mg days 1, 2, n=8",12.5%
same,Mean tumour size on day 6,[7]; [9],1.458 ± 1.458 mm^2
same,Mean tumour size on day 10,[7]; [9],5.058 ± 4.014 mm^2
same,Mean tumour size on day 17,[7]; [9],6.644 ± 3.430 mm^2
same,Mean tumour size at day 1,[7]; [9],22.90 ± 1.155 mm^2
same,Animals showing complete tumour response,"[7]; Group 3: 1 mg days 1, 3",five out of eight
same,Free of Tumour at end of Follow-Up,"[7]; Group 3: 1 mg days 1, 3, n=8",62.5% (5/8)
same,Relapse of Tumour,"[7]; Group 3: 1 mg days 1, 3, n=8",29% (2/7)
same,Tumour Response: complete response,"[7]; Group 3: 1 mg days 1, 3, n=8",87.5%
same,Tumour Response: no response,"[7]; Group 3: 1 mg days 1, 3, n=8",12.5%
same,Tumour Response: partial response,"[7]; Group 3: 1 mg days 1, 3, n=8",0%
same,Mean tumour size on day 6,[7]; [10],2.983 ± 2.983 mm^2
same,Mean tumour size on day 10,[7]; [10],10.85 ± 7.553 mm^2
same,Mean tumour size on day 17,[7]; [10],0.00 ± 0.00 mm^2
same,Mean tumour size at day 1,[7]; [10],21.43 ± 1.141 mm^2
same,Animals showing complete tumour response,"[7]; Group 4: 1 mg days 1, 2, 3",five out of eight
same,Free of Tumour at end of Follow-Up,[7]; [11],62.5% (5/8)
same,Relapse of Tumour,[7]; [11],37.5%
same,Tumour Response: complete response,[7]; [11],100% (8/8)
same,Tumour Response: no response,[7]; [11],0%
same,Tumour Response: partial response,[7]; [11],0%
same,Mean tumour size on day 6,[7]; [12],0.00 ± 0.00 mm^2
same,Mean tumour size on day 10,[7]; [12],0.00 ± 0.00 mm^2
same,Mean tumour size on day 17,[7]; [12],1.308 ± 1.308 mm^2
same,Mean tumour size at day 1,[7]; [12],24.09 ± 1.653 mm^2
same,Anti-tumour effect,[7]; all four treatment regimes,strong anti tumour effect
same,Toxic or other adverse effects,"[7]; all treated groups, intratumoural 1 mg",No toxic or other adverse effects besides local necrotic tissue and wound formation were observed
same,Animals without response to the treatment,[7]; of the 32 treated animals (in Group 3),one
same,Animals with a complete tumour response,[7]; [13],27
same,Animals with a partial response,[7]; [13],four
